Experimental data published in patent US11377441B2, “Covalent inhibitors of KRAS” (Araxes Pharma LLC, priority 2017, dated 2022).

biological target: T1, KRAS G12C 1-169, his-tagged protein, GDP-loaded (Homo sapiens, UniProt P01116, G12C); experiment: Biochemical assay: covalent modification of KRAS G12C measured by mass spectrometry (RapidFire/TOF or Q-Exactive); assay type: binding; conditions: Example 14 comparative biochemical data; tested according to the above procedures (Example 1)
T1 construct: KRAS G12C 1-169, his-tagged protein, GDP-loaded
Method: Test compounds were prepared as 10 mM stock solutions in DMSO (Fisher cat #BP-231-100). KRAS G12C 1-169, his-tagged protein, GDP-loaded is diluted to 2 μM or 0.5 μM in buffer (20 mM Hepes, 150 mM NaCl, 1 mM MgCl2). Compounds were tested for activity as follows:
Compounds were diluted to 50× final test concentration in DMSO in 96-well storage plates. Compound stock solutions were vortexed before use and observed carefully for any sign of precipitation. Dilutions are as follow: • For 100 μM final compound concentration, compounds were diluted to 5000 μM (5 μL 10 mM compound stock+5 μL DMSO and mixed well by pipetting. • For 30 μM final compound concentration, compounds were diluted to 1500 μM (3 μL 10 mM compound stock+17 μL DMSO) and mixed well by pipetting. • For 10 μM final compound concentration, compounds were diluted to 500 μM (2 μL 10 mM compound stock+38 μL DMSO) and mixed well by pipetting. 49 μL of the stock protein solution was added to each well of a 96-well PCR plate (Fisher cat #1423027). 1 μL of the diluted 50× compounds were added to appropriate wells in the PCR plate using 12-channel pipettor. Reactions were mixed carefully and thoroughly by pipetting up/down with a 200 μL multi-channel pipettor. The plate was sealed well with aluminum plate seal, and stored in drawer at room temperature for 10 minutes, 30 minutes, 2 hours or 24 hours. 5 μL of 2% formic acid (Fisher cat #A117) in de-ionized H2O was then added to each well followed by mixing with a pipette. The plate was then resealed with aluminum seal and stored on dry ice until analyzed as described below.
The above described assays were analyzed by mass spectrometry according to one of the following two procedures:
The MS instrument was set to positive polarity, 2 GHz resolution, and low mass (1700) mode and allowed to equilibrate for 30 minutes. The instrument was then calibrated, switched to acquisition mode and the appropriate method loaded.
After another 30 minute equilibration time, a blank batch (i.e., buffer) was run to ensure equipment is operating properly. The samples were thawed at 37° C. for 10 minutes, briefly centrifuged, and transfer to the bench top. Wells A1 and H12 were spiked with 1 μL 500 μM internal standard peptide, and the plates centrifuged at 2000×g for 5 minutes. The method was then run and masses of each individual well recorded.
The masses (for which integration data is desired) for each well were pasted into the platemap and exported from the analysis. Masses for the internal standards were exported as well. The data at 50 ppm was extracted for the +19 charge state, and identity of well A1 was assigned using the internal standard spike and integrated. Peak data was exported as a TOF list and the above steps were repeated individually, for the +20, 21, 22, 23, 24, and 25 charge states.
The masses and peak intensities of KRAS G12C protein species were measured using a Dionex RSLCnano system (Thermo Scientific) connected to a Q Exactive Plus mass spectrometer (Thermo Scientific).
[…] of sample was each loaded onto a Aeris™ 3.6 μm WIDEPORE C4 200 Å, LC Column 50×2.1 mm column maintained at 40° C. at a flow rate of 600 μL/min with 20% Solvent A (0.1% formic acid in H2O) and […] (0.1% formic acid in acetonitrile). The liquid chromatography conditions were 20% solvent B for 1 minute, 20% to 60% solvent B for 1.5 minutes, 60% to 90% solvent for 0.5 minute, 90% solvent B for 0.2 minute, 90% to 20% solvent B for 0.2 minute, and then equilibrated for 1.6 minutes before the following sample injection. The flow rate was maintained at 600 μL/min throughout the sample analysis.
The mass spectrometer was operated in profile mode at a resolution of 17500, 5 microscans, using 50 msec max injection time and an AGC target of 1×10^6, and a full mass range from 800-1850 m/z was recorded. The HCD trapping gas was optimized for maximum sensitivity for intact proteins. […]

Q: How did the binding activity turn out when `C=CC(=O)N1C[C@H](C)N(c2nc(N3CC(N(C)C)C3)nc3c(F)c(-c4c(C)ccc5[nH]ncc45)c(Cl)cc23)C[C@H]1C` (atropisomer, axis not shown) [reference compound] was run?
A: 71%

same assay, conditions: covalent binding to (modification of) KRAS G12C after a ten minute incubation period

Q: Which Binding % does the source give for `C=CC(=O)N1C[C@H](C)N(c2nc(N3CC(N(C)C)C3)nc3c(F)c(-c4c(C)ccc5[nH]nc(C6CC6)c45)c(Cl)cc23)C[C@H]1C` (atropisomer, axis not shown) [Compound 76, 1-((2R,5S)-4-((R)-6-chloro-7-(3-cyclopropyl-5-methyl-1H-indazol-4-yl)-2-(3-(dimethylamino)azetidin-1-yl)-8-fluoroquinazolin-4-yl)-2,5-dimethylpiperazin-1-yl)prop-2-en-1-one] here?
A: +++ (+++ indicates binding activity greater than 80%)

Q: How did the Binding % turn out when `C=CC(=O)N1C[C@H](C)N(c2nc(OCC(C)(C)N(C)C)nc3c(F)c(-c4c(C)ccc5cnn(C6CC6)c45)c(Cl)cc23)C[C@H]1C` [Compound 215, 1-((2R,5S)-4-(6-chloro-7-(1-cyclopropyl-6-methyl-1H-indazol-7-yl)-2-(2-(dimethylamino)-2-methylpropoxy)-8-fluoroquinazolin-4-yl)-2,5-dimethylpiperazin-1-yl)prop-2-en-1-one] was run?
A: +++ (+++ indicates binding activity greater than 80%)

Q: How did the Binding % turn out when `C=CC(=O)N1C[C@H](C)N(c2nc(OCCN3CC(F)(F)C3)nc3c(F)c(-c4c(C)ccc5cnn(CC)c45)c(Cl)cc23)C[C@H]1C` [Compound 123, 1-((2R,5S)-4-(6-chloro-2-(2-(3,3-difluoroazetidin-1-yl)ethoxy)-7-(1-ethyl-6-methyl-1H-indazol-7-yl)-8-fluoroquinazolin-4-yl)-2,5-dimethylpiperazin-1-yl)prop-2-en-1-one] was run?
A: +++ (+++ indicates binding activity greater than 80%)

Q: Which Binding % does the source give for `C=CC(=O)N1C[C@H](C)N(c2nc(N3CC(NC)C3)nc3c(F)c(-c4c(C)ccc5[nH]nc(C6CC6)c45)c(Cl)cc23)C[C@H]1C` [Compound 129, 1-((2R,5S)-4-(6-chloro-7-(3-cyclopropyl-5-methyl-1H-indazol-4-yl)-8-fluoro-2-(3-(methylamino)azetidin-1-yl)quinazolin-4-yl)-2,5-dimethylpiperazin-1-yl)prop-2-en-1-one] here?
A: +++ (+++ indicates binding activity greater than 80%)

Q: Which Binding % does the source give for `C=CC(=O)N1C[C@H](C)N(c2nc(N3CC([N+](C)(C)C)C3)nc3c(F)c(-c4c(C)ccc5cnn(C)c45)c(Cl)cc23)C[C@H]1C` [Compound 106, 1-((R)-4-((2S,5R)-4-acryloyl-2,5-dimethylpiperazin-1-yl)-6-chloro-7-(1,6-dimethyl-1H-indazol-7-yl)-8-fluoroquinazolin-2-yl)-N,N,N-trimethylazetidin-3-aminium] here?
A: +++ (+++ indicates binding activity greater than 80%)

Q: How did the Binding % turn out when `C=CC(=O)N1C[C@H](C)N(c2nc(NCCCN(C)C)nc3c(F)c(-c4c(C)ccc5onc(N)c45)c(Cl)cc23)C[C@H]1C` [Compound 73, 1-((2R,5S)-4-(7-(3-amino-5-methylbenzo[d]isoxa-zol-4-yl)-6-chloro-2-(3-(dimethylamino)propyl-amino)-8-fluoroquinazolin-4-yl)-2,5-dimethylpiperazin-1-yl)prop-2-en-1-one] was run?
A: + (+ indicates binding activity greater than 0% and up to 50%)

Q: `C=CC(=O)N1C[C@H](C)N(c2nc(OCCN3CC(F)(F)C3)nc3c(F)c(-c4c(C)ccc5cnn(C)c45)c(Cl)cc23)C[C@H]1C` (atropisomer, axis not shown) [Compound 146, 1-((2R,5S)-4-((S)-6-chloro-2-(2-(3,3-difluoroazetidin-1-yl)ethoxy)-7-(1,6-dimethyl-1H-indazol-7-yl)-8-fluoroquinazolin-4-yl)-2,5-dimethylpiperazin-1-yl)prop-2-en-1-one] was tested. Which Binding % did it give?
A: + (+ indicates binding activity greater than 0% and up to 50%)

Q: For `C=CC(=O)N1CCN(c2nc(N3CC(N(C)C)C3)nc3c(F)c(-c4c(C)ccc5[nH]ncc45)c(Cl)cc23)CC1CC#N` (stereo not drawn) [Compound 267, 2-(1-acryloyl-4-(6-chloro-2-(3-(dimethyalmino)azetidin-1-yl)-8-fluoro-7-(5-methyl-1H-indazol-4-yl)quinazolin-4-yl)piperazin-2-yl)acetonitrile], which Binding % is on record?
A: +++ (+++ indicates binding activity greater than 80%)

Q: With `C=CC(=O)N1C[C@H](C)N(c2nc(OC3CCN(C(C)C)CC3)nc3c(F)c(-c4c(C)ccc5cnn(C)c45)c(Cl)cc23)C[C@H]1C` (atropisomer, axis not shown) [Compound 166, 1-((2R,5S)-4-((S)-6-chloro-7-(1,6-dimethyl-1H-indazol-7-yl)-8-fluoro-2-(1-isopropylpiperidin-4-yloxy)quinazolin-4-yl)-2,5-dimethylpiperazin-1-yl)prop-2-en-1-one] as the compound, how does the Binding % read?
A: + (+ indicates binding activity greater than 0% and up to 50%)

Q: For `C=CC(=O)N1C[C@H](C)N(c2nc(O[C@H](C)CN(C)C)nc3c(F)c(-c4c(C)ccc5[nH]nc(C)c45)c(Cl)cc23)C[C@H]1C` [Compound 232, 1-((2R,5S)-4-(6-chloro-7-(3,5-dimethyl-1H-indazol-4-yl)-2-((R)-1-(dimethylamino)propan-2-yloxy)-8-fluoroquinazolin-4-yl)-2,5-dimethylpiperazin-1-yl)prop-2-en-1-one], which Binding % is on record?
A: ++ (++ indicates binding activity from 50 to 80%)

Q: `C=CS(=O)(=O)N1C[C@H](C)N(c2nc(N3CC(N(C)C)C3)nc3c(F)c(-c4c(C)ccc5[nH]nc(C)c45)c(Cl)cc23)C[C@H]1C` [Compound 194, 1-(6-chloro-7-(3,5-dimethyl-1H-indazol-4-yl)-4-((2S,5R)-2,5-dimethyl-4-(vinylsulfonyl)piperazin-1-yl)-8-fluoroquinazolin-2-yl)-N,N-dimethylazetidin-3-amine] was tested. Which Binding % did it give?
A: + (+ indicates binding activity greater than 0% and up to 50%)

Q: For `[2H]C([2H])([2H])N(C1CN(c2nc(N3C[C@@H](C)N(C(=O)C=C)C[C@@H]3C)c3cc(Cl)c(-c4c(C)ccc5cnn(C)c45)c(F)c3n2)C1)C([2H])([2H])[2H]` (atropisomer, axis not shown) [Compound 212, 1-((2R,5S)-4-((R)-6-chloro-7-(1,6-dimethyl-1H-indazol-7-yl)-2-(3-(di-perdeuteromethylamino)azetidin-1-yl)-8-fluoroquinazolin-4-yl)-2,5-dimethylpiperazin-1-yl)prop-2-en-1-one], which Binding % is on record?
A: +++ (+++ indicates binding activity greater than 80%)

Q: How did the Binding % turn out when `C=CC(=O)N1C[C@H](C)N(c2nc(N3CC(N(C)C)C3)nc3c(F)c(-c4c(C(C)C)ccc5[nH]ncc45)c(Cl)cc23)C[C@H]1C` [Compound 159, 1-((2R,5S)-4-(6-chloro-2-(3-(dimethylamino)azetidin-1-yl)-8-fluoro-7-(5-isopropyl-1H-indazol-4-yl)quinazolin-4-yl)-2,5-dimethylpiperazin-1-yl)prop-2-en-1-one] was run?
A: + (+ indicates binding activity greater than 0% and up to 50%)

Q: `C=CC(=O)N1C[C@H](C)N(c2nc(OCCN3CCC(F)CC3)nc3c(F)c(-c4c(C)ccc5[nH]nc(C)c45)c(Cl)cc23)C[C@H]1C` [Compound 164, 1-((2R,5S)-4-((R)-6-chloro-7-(3,5-dimethyl-1H-indazol-4-yl)-8-fluoro-2-(2-(4-fluoropiperidin-1-yl)ethoxy)quinazolin-4-yl)-2,5-dimethylpiperazin-1-yl)prop-2-en-1-one] was tested. Which Binding % did it give?
A: +++ (+++ indicates binding activity greater than 80%)
